Results as given in PubChem BioAssay (NCI).
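Following 48 hours of exposure in 96-well plates, responses at five concentrations were used to interpolate endpoints linearly. Here, GI50 denotes the concentration required for 50% inhibition of growth. TGI: concentration producing complete growth inhibition.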

Experiments:
Assay in all cases: NCI tumour cell line growth inhibition, 48 h
786-0 renal = tested on: 786-0 renal
A498 renal = tested on: A498 renal
A549 NSCLC = tested on: A549 NSCLC
ACHN renal = tested on: ACHN renal
CAKI-1 renal = tested on: CAKI-1 renal
CCRF-CEM leukemia = tested on: CCRF-CEM leukemia
COLO 205 colon = tested on: COLO 205 colon
DLD-1 colon = tested on: DLD-1 colon
DMS 114 small cell lung = tested on: DMS 114 small cell lung
DMS 273 small cell lung = tested on: DMS 273 small cell lung
EKVX NSCLC = tested on: EKVX NSCLC
HCC-2998 colon = tested on: HCC-2998 colon
HCT-15 colon = tested on: HCT-15 colon
HL-60(TB) leukemia = tested on: HL-60(TB) leukemia
HOP-18 NSCLC = tested on: HOP-18 NSCLC
HOP-62 NSCLC = tested on: HOP-62 NSCLC
HT29 colon = tested on: HT29 colon
IGROV1 ovarian = tested on: IGROV1 ovarian
K-562 leukemia = tested on: K-562 leukemia
KM12 colon = tested on: KM12 colon
KM20L2 colon = tested on: KM20L2 colon
LOX IMVI melanoma = tested on: LOX IMVI melanoma
LXFL 529 NSCLC = tested on: LXFL 529 NSCLC
M14 melanoma = tested on: M14 melanoma
M19-MEL melanoma = tested on: M19-MEL melanoma
MALME-3M melanoma = tested on: MALME-3M melanoma
MOLT-4 leukemia = tested on: MOLT-4 leukemia
NCI-H23 lung = tested on: NCI-H23 lung
NCI-H460 lung = tested on: NCI-H460 lung
OVCAR-3 ovarian = tested on: OVCAR-3 ovarian
OVCAR-4 ovarian = tested on: OVCAR-4 ovarian
OVCAR-5 ovarian = tested on: OVCAR-5 ovarian
OVCAR-8 ovarian = tested on: OVCAR-8 ovarian
RPMI-8226 leukemia = tested on: RPMI-8226 leukemia
RXF 393 renal = tested on: RXF 393 renal
SF-268 CNS = tested on: SF-268 CNS
SF-295 CNS = tested on: SF-295 CNS
SF-539 CNS = tested on: SF-539 CNS
SK-MEL-2 melanoma = tested on: SK-MEL-2 melanoma
SK-MEL-28 melanoma = tested on: SK-MEL-28 melanoma
SK-MEL-5 melanoma = tested on: SK-MEL-5 melanoma
SK-OV-3 ovarian = tested on: SK-OV-3 ovarian
SN12C renal = tested on: SN12C renal
SNB-19 CNS = tested on: SNB-19 CNS
SNB-75 CNS = tested on: SNB-75 CNS
SNB-78 CNS = tested on: SNB-78 CNS
SW-620 colon = tested on: SW-620 colon
TK-10 renal = tested on: TK-10 renal
U251 CNS = tested on: U251 CNS
UACC-257 melanoma = tested on: UACC-257 melanoma
UACC-62 melanoma = tested on: UACC-62 melanoma
UO-31 renal = tested on: UO-31 renal
XF 498 CNS = tested on: XF 498 CNS

## [C-]#[O+].[C-]#[O+].[C-]#[O+].[C-]#[O+].[O-]C(c1ccccc1[PH+]1OC(C(F)(F)F)(C(F)(F)F)c2ccccc21)(C(F)(F)F)C(F)(F)F.[Re] (stereo unspecified)
786-0 renal
  GI50: 4.26 µM
  TGI: 15.3 µM
A498 renal
  GI50: 2500 nM
  TGI: 8.19 µM
A549 NSCLC
  GI50: 4.56 µM
  TGI: 19.2 µM
ACHN renal
  GI50: 3.75 µM
  TGI: 12.9 µM
CAKI-1 renal
  GI50: 5.45 µM
  TGI: 20.8 µM
CCRF-CEM leukemia
  GI50: 2390 nM
  TGI: 5.83 µM
COLO 205 colon
  GI50: 2320 nM
  TGI: 5.74 µM
DLD-1 colon
  GI50: 5.1 µM
  TGI: 21.1 µM
DMS 114 small cell lung
  GI50: 2780 nM
  TGI: 8.82 µM
DMS 273 small cell lung
  GI50: 2930 nM
  TGI: 9.78 µM
EKVX NSCLC
  GI50: 7.51 µM
  TGI: 25.4 µM
HCC-2998 colon
  GI50: 5.11 µM
  TGI: 18.3 µM
HCT-15 colon
  GI50: 5.72 µM
  TGI: 20.6 µM
HL-60(TB) leukemia
  GI50: 2810 nM
  TGI: 11.4 µM
HOP-18 NSCLC
  GI50: 7.89 µM
  TGI: 21.1 µM
HOP-62 NSCLC
  GI50: 7.54 µM
  TGI: 24 µM
HT29 colon
  GI50: 3.6 µM
  TGI: 12.2 µM
IGROV1 ovarian
  GI50: 3.46 µM
  TGI: 14.8 µM
K-562 leukemia
  GI50: 2690 nM
  TGI: 11.1 µM
KM12 colon
  GI50: 3.9 µM
  TGI: 12.5 µM
KM20L2 colon
  GI50: 2200 nM
  TGI: 13.7 µM
LOX IMVI melanoma
  GI50: 2590 nM
  TGI: 6.2 µM
LXFL 529 NSCLC
  GI50: 2010 nM
  TGI: 4.26 µM
M14 melanoma
  GI50: 1990 nM
  TGI: 4.01 µM
M19-MEL melanoma
  GI50: 3.59 µM
  TGI: 14.4 µM
MALME-3M melanoma
  GI50: 2330 nM
  TGI: 5.07 µM
MOLT-4 leukemia
  GI50: 2500 nM
  TGI: 6.39 µM
NCI-H23 lung
  GI50: 2360 nM
  TGI: 5.25 µM
NCI-H460 lung
  GI50: 2920 nM
  TGI: 8.97 µM
OVCAR-3 ovarian
  GI50: 2770 nM
  TGI: 7.58 µM
OVCAR-4 ovarian
  GI50: 2880 nM
  TGI: 8.53 µM
OVCAR-5 ovarian
  GI50: 5 µM
  TGI: 18.6 µM
OVCAR-8 ovarian
  GI50: 3.65 µM
  TGI: 15.6 µM
RPMI-8226 leukemia
  GI50: 2890 nM
  TGI: 12.5 µM
RXF 393 renal
  GI50: 1900 nM
  TGI: 4.04 µM
SF-268 CNS
  GI50: 6.18 µM
  TGI: 23.5 µM
SF-295 CNS
  GI50: 4.97 µM
  TGI: 18.3 µM
SF-539 CNS
  GI50: 2850 nM
  TGI: 8.68 µM
SK-MEL-2 melanoma
  GI50: 4.88 µM
  TGI: 18.2 µM
SK-MEL-28 melanoma
  GI50: 2560 nM
  TGI: 6.8 µM
SK-MEL-5 melanoma
  GI50: 6.33 µM
  TGI: 20.6 µM
SK-OV-3 ovarian
  GI50: 14.7 µM
  TGI: 30.2 µM
SN12C renal
  GI50: 3.63 µM
  TGI: 13.4 µM
SNB-19 CNS
  GI50: 11.5 µM
  TGI: 33.5 µM
SNB-75 CNS
  GI50: 4.65 µM
  TGI: 15.6 µM
SNB-78 CNS
  GI50: 3.7 µM
  TGI: 19.5 µM
SW-620 colon
  GI50: 3.87 µM
  TGI: 13.5 µM
TK-10 renal
  GI50: 7.26 µM
  TGI: 21.7 µM
U251 CNS
  GI50: 3.05 µM
  TGI: 14.1 µM
UACC-257 melanoma
  GI50: 2260 nM
  TGI: 4.28 µM
UACC-62 melanoma
  GI50: 2120 nM
  TGI: 4.92 µM
UO-31 renal
  GI50: 2580 nM
  TGI: 7.02 µM
XF 498 CNS
  GI50: 2960 nM
  TGI: 10.3 µM
